Assay results published in article PMC5963591, “Bitopic Binding Mode of an M1 Muscarinic Acetylcholine Receptor Agonist Associated with Adverse Clinical Trial Outcomes” (Molecular Pharmacology, 2018).

How the values were obtained:
human M1 mAChR [1] = target: T1, human M1 mAChR (Homo sapiens, UniProt P11229); assay: IP1 accumulation after receptor alkylation with phenoxybenzamine (functional interaction with ACh); settings: phenoxybenzamine 3 μM for 30 minutes, CHO Flp-In cells
T1 sequence (P11229 1-460): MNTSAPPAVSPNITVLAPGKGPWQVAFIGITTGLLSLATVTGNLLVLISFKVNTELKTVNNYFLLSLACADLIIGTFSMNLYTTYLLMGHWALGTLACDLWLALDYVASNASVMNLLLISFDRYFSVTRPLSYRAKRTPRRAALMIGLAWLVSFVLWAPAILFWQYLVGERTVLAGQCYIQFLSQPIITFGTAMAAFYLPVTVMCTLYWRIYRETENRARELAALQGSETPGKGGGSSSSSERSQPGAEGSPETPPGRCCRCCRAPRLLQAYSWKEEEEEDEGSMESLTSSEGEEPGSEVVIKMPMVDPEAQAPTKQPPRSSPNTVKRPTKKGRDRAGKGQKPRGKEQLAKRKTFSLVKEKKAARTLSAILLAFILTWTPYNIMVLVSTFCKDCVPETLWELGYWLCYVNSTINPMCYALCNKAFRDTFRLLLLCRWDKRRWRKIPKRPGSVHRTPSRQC

C57Bl/6J mice = assay: Contextual fear conditioning, scopolamine-induced deficit; format: in vivo, mouse; settings: for shape of the dose response on learning and memory: escalating i.p. doses with scopolamine […]
Protocol: C57Bl/6J male mice (aged 8–12 weeks) were acclimatized to the behavioral testing suite at least 2 hours prior to the test. […] Mice were placed in the conditioning chamber (ANY-maze Fear Conditioning System; Stoelting, Dublin, Ireland); after a 2-minute adaptation period, they received three tone/foot shock pairings where the foot shock (unconditioned stimulus; 2 seconds; 0.4 mA) always co-terminated with a tone (conditioned stimulus; 2.8 kH; 85 dB; 30 seconds). The conditioned stimulus–unconditioned stimulus pairings were separated by 1-minute intervals. After the mice completed training, they remained in the conditioning chamber for 1 minute and were then returned to their home cages. The next day, the mice were placed back in the conditioning chamber, and time spent immobile was recorded for 3 minutes to assess context-dependent learning. Data were analyzed using ANY-maze software (Stoelting).

human M1 receptor = target: T2, human M1 receptor (Homo sapiens, UniProt P11229); assay: ERK1/2 phosphorylation, CHO Flp-In human M1 cells; format: cell-based
T2 construct: expressed in transfected cells; host or cells: CHO Flp-In
T2 sequence (P11229 1-460): T1 sequence (P11229 1-460)
Protocol: CHO Flp-In cells stably expressing the human M1 receptor were seeded onto transparent 96-well plates at 20,000 cells/well and grown to confluence. Cells were serum starved overnight prior to the experiment. Prior to the stimulations, cells were washed with 100 μl phosphate-buffered saline and then incubated in serum free F12 medium at 37°C. Cells were stimulated with ligands for 5 minutes at 37°C in a final volume of 200 μl. The stimulations were terminated by rapid aspiration and addition of 50 μl lysis buffer supplemented with blocking reagent per the manufacturer’s instructions, followed by gentle agitation at room temperature for 30 minutes. Subsequently, 16 μl of this lysate was transferred to a 384-well white ProxiPlate (PerkinElmer) and incubated with 4 μl premixed antibody solution for 2 hours at room temperature.
(§1) For the analysis, all families of agonist curves at each pathway were globally fitted to the model with the parameters, basal, Em, and n shared between all agonists. For full agonists, the LogKA was constrained to a value of zero, whereas for partial agonists this was directly estimated by the curve fitting procedure; the Log(τ/KA) parameter was estimated as a unique measure of activity for each agonist.

wild-type M1 mAChR = assay: Agonist bias analysis, IP1 versus ERK1/2 phosphorylation (operational model); format: cell-based, human; settings: reference ligand ACh
Excerpt: as §1

human M1 mAChR [2] = target: T1, human M1 mAChR; settings: 20 nM [^3H]-GSK1034702
[3] = Mouse pharmacokinetics, unbound plasma and brain concentrations; format: in vivo; settings: mice, 30 minutes after i.p. administration
Protocol: Pharmacokinetic analyses were conducted as previously described ([Witkin et al., 2017]). Compounds were administered via intraperitoneal injection (in 5% glucose) 30 minutes prior to blood collection. Mice were anesthetized with 3% isoflurane (2 l/min), and blood was collected by cardiac puncture of the left ventricle. Blood was immediately transferred to EDTA tubes and centrifuged at 1000g for 10 minutes at 4°C; the supernatant was collected and frozen. Brains from each mouse were also dissected and snap-frozen on dry ice.
Brain samples were homogenized in three volumes of methanol/water [1:4 (v/v)] by weight. A 25-μl aliquot of each study sample, calibration standard, and control sample was added to a 96-well plate and mixed with 180 μl acetonitrile/methanol [1:1 (v/v)] containing internal standard. The samples were subsequently centrifuged, and the resulting supernatants were diluted 12.5-fold with methanol/water [1:1 (v/v)] prior to analyzing 10-μl aliquots by liquid chromatography–tandem mass spectrometry as previously described ([Bradley et al., 2017]).

human M1 mAChR [4] = target: T1, human M1 mAChR; assay: Kinetic [3H]-NMS binding (dissociation) in membranes; parameters: expressed in transfected cells; host or cells: CHO Flp-In; settings: compound 10 μM plus atropine 10 μM
Protocol: Reactions were terminated by rapid filtration onto GF/B filter paper (Whatman, Maidstone, UK) and three washes with 3 ml ice-cold 0.9% NaCl using a Brandel harvester (M-24TI; Brandel, Fort Lauderdale, FL). Membrane bound radioactivity was determined by liquid scintillation (Ultima Gold; PerkinElmer) counting.

human M1 mAChR [5] = target: T1, human M1 mAChR; assay: IP-One (IP1) accumulation assay, CHO Flp-In human M1 cells; format: cell-based; parameters: expressed in transfected cells; host or cells: CHO Flp-In
Protocol: Stimulation of IP accumulation was determined using the Cisbio IP-One Gq assay kit per the manufacturer’s instructions. […] CHO Flp-In cells stably expressing the human M1 mAChR were grown to confluence in T75 cell culture flasks at 37°C. Cells were washed with warm phosphate-buffered saline and detached using phosphate-buffered saline with 0.1 M EDTA. Detached cells were centrifuged at 1000g and the cells were resuspended in stimulation buffer.
All IP-One stimulations were terminated by the addition of 3 μl/well IP1-d2 solution, followed by 3 μl/well anti–IP1-cryptate solution and incubation for 1 hour at room temperature with shaking.
Functional concentration-response curves were fitted according to a four-parameter logistic equation (to determine minimum and maximum asymptotes, LogEC50, and slope; GraphPad Prism 6). […] In the absence of antagonist ([B] = 0), this equation becomes the standard four-parameter logistic equation for fitting agonist concentration-response data.

murine prion disease = settings: doses that rescued learning and memory, ref Bradley et al., 2017; cited from earlier work
patients with AD = system: patients with AD; parameters: method as in Bodick et al., 1997; settings: ref Bodick et al., 1997; cited from earlier work
[6] = normalized to reference ligand ACh
[7] = transduction coefficient, wild-type M1 mAChR

CC(COc1ccccc1)N(CCCl)Cc1ccccc1 (stereo not drawn) [Phenoxybenzamine, phenoxybenzamine, reference compound]
reduction of the functional human M1 mAChR population (human M1 mAChR [1]): approximately 80%

Cc1ccccc1CN1CCC(N2CCC(n3c(=O)[nH]c4ccccc43)CC2)CC1 [TBPB, 1-[1′-(2-methylbenzyl)-1,4′-bipiperidin-4-yl]-1,3-dihydro-2H-benzimidazol-2-one, reference compound]
shape of the dose response on learning and memory (C57Bl/6J mice): no evidence of a bell-shaped dose response | ERK1/2 Phosphorylation ΔLog10(τ/KA) (human M1 receptor; [6]): −0.3 ± 0.4 | ERK1/2 Phosphorylation Log10(τ/KA) (human M1 receptor; [7]): 6.9 ± 0.4 | Log Bias Factor IP1 – ERK1/2 ΔΔLog10(τ/KA) (wild-type M1 mAChR): 1.4 ± 0.2 | displacement of specific [^3H]-GSK1034702 binding (human M1 mAChR [2]): fully displaced | free brain concentration versus dose [3]: could not be increased beyond that observed at 10 mg/kg | effect on the [^3H]-NMS dissociation rate (human M1 mAChR [4]): no effect | IP1 Emax (human M1 mAChR [5]; CHO Flp-In human M1 cells): 55.2 ± 3.1 | IP1 Accumulation ΔLog10(τ/KA) (human M1 mAChR [5]; [6]): 1.1 ± 0.2 | IP1 Accumulation Log10(τ/KA) (human M1 mAChR [5]; [7]): 8.2 ± 0.2

CC(=O)OCC[N+](C)(C)C [ACh, acetylcholine]
Log Bias Factor IP1 – ERK1/2 ΔΔLog10(τ/KA) (wild-type M1 mAChR): 0.0 ± 0.1

CN1[C@@H]2C[C@@H](OC(=O)[C@H](CO)c3ccccc3)C[C@H]1[C@@H]1O[C@@H]12 [scopolamine]
effect on contextual fear conditioning learning and memory (C57Bl/6J mice; doses above 1 mg/kg, 30 minutes prior to training): significant reduction in contextual fear conditioning learning and memory

CCCCCCOc1nsnc1C1=CCCN(C)C1 [Xanomeline, xanomeline]
shape of the dose response on learning and memory (C57Bl/6J mice): bell shaped | adverse responses (murine prion disease): gave adverse responses consistent with the activation of other muscarinic receptor subtypes | Log Bias Factor IP1 – ERK1/2 ΔΔLog10(τ/KA) (wild-type M1 mAChR): 1.1 ± 0.1 | free brain concentration versus dose [3]: increase linearly with escalating doses | effect on cognitive function (patients with AD): significantly improved cognitive function
